Experimental data from article PMC12191924, “A new naphthalene-based fluorogenic substrate for cytochrome P450 4A11” (Biochemical Journal, 2025).
Read-outs that look alike come from different tables or passages of the source.

System: pooled human liver microsomes (HLM)
Test: Substrate saturation profiles of MONACRA metabolism by pooled HLM, global fitting
Format: in vitro ADME
Settings: for Km: global fitting of seven pooled HLM preparations
Text: To probe the MONACRA metabolism by the human liver P450 system, we explored the SSPs of our new fluorogenic substrate by seven different pooled HLM preparations with P450 pool composition characterized by a global proteomics toolkit. […] The first two principal components cover 99.4% of the overall differences between the individual SSPs. While the first principal component mainly reflects the differences in SSP amplitude, the second PC is responsible for the changes in the contribution of the high- and low-affinity components. Global fitting of the dataset with a combination of three Michaelis–Menten equations yielded the components with K M values of 21, 213, and 730 µM (Figure 10C). The combinations of these three Michaelis–Menten components approximate all individual SSPs of the dataset with a square correlation coefficient (R ^2) higher than 0.998.
Figure 10: Substrate saturation profiles (SSPs) of 3-(6-methoxynaphthalen-2-yl)acrylic acid (MONACRA) metabolism by seven pooled preparations of human liver microsomes (HLMs) and their global analysis. The HLM preparations used in this study and their designations are described in the “Materials and Methods” section of the article. […] These two principal components cover 99.4% of the overall differences between the SSPs. […] The substance label MONACRA is taken from the axis title, as no other label is printed.
This study used preparations of pooled HLMs from 50, 150, or 200 donors (mixed gender). The preparations CDN, DNJ, and WGP were INVITROCYP 150-Donor Human Liver Microsomes obtained from BioIVT Corporation (Westbury, NY). Lot EGW is INVITROCYP M-Class 50-Donor HLM procured from the same company. Lots 1,910,096 and 1,210,347 were XTreme 200 Mixed Gender HLM (200 donors) purchased from XenoTech LLC (Kansas City, KS), currently a part of BioIVT. Lot 2,110,263 corresponds to mixed gender HLM from 50 donors from the same company. These lots are referred to herein as X096, X347, and X263, respectively. The supplier of the HLM preparations used in our studies, BioIVT Corporation, has declared to adhere to the regulations of the Department of Health and Human Services for the protection of human subjects (45 CFR §46.116 and §46.117) and Good Clinical Practice, (ICH E6) in obtaining the samples of human tissues used for producing the preparations of human subcellular fractions available from these companies.
The MONACRA metabolism experiments were conducted with 12 MONACRA stock solutions in the Incubation Buffer (0.1 M Hepes buffer pH 7.4 containing 60 mM KCl) with concentrations ranging from 0 to 3.3 mM prepared with serial dilution. A 0.3 M stock solution of MONACRA in DMSO was diluted by the Incubation Buffer to prepare the most concentrated (3.3 mM) solution in the series. This series of stock solutions provided the MONACRA concentrations in the incubation mixture decreasing from 825 to 0 µM with a dilution factor of 1.73333 (≈√3). The procedure of preparing the multiwell plates for activity assays was similar to that described earlier for FA-based assays. The prepared plate was placed into a heater-shaker module with a PCR-plate adapter in location 1 of the OT-2 deck. Suspensions of microsomes were diluted to the desired concentration (0.02–0.1 µM P450 for recombinant enzymes and 0.3–1 mg/ml for HLM samples) and placed into all eight wells of the first row of a PCR plate (96-well semi-skirted PCR plate, BrandTech Scientific Inc., Essex, CT), 255 µl per well. The PCR plate was inserted into a pre-cooled PCR-plate cooling block (Eppendorf, Hamburg, Germany) and placed at position 5 of the OT-2 deck. An Azzota deep-well plate placed in location 6 contained 0.4 ml of 0.3 M solution trichloroacetic acid as a quenching reagent. The second row of the same plate contained 0.6 ml of 2.4 molar Na-glycine buffer, pH 10.4. […]

[1] = across seven pooled HLM preparations

Q: For `COc1ccc2cc(C=CC(=O)O)ccc2c1` [MONACRA, 3-(6-methoxynaphthalen-2-yl)acrylic acid], which “F 1 (fractional contribution of high-affinity phase)” value (HLM sample CDN) is on record?
A: 0.1%

Q: And the “F 2 (fractional contribution of middle-affinity phase)” value (HLM sample CDN)?
A: 68.7%

Q: And the “F 3 (fractional contribution of low-affinity phase)” value (HLM sample CDN)?
A: 31.2%

Q: And the “F 1 (fractional contribution of high-affinity phase)” value (HLM sample DNJ)?
A: 0.5%

Q: And the “F 2 (fractional contribution of middle-affinity phase)” value (HLM sample DNJ)?
A: 91.6%

Q: What about the “F 3 (fractional contribution of low-affinity phase)” value (HLM sample DNJ) of the same compound?
A: 7.9%

Q: And the “F 1 (fractional contribution of high-affinity phase)” value (HLM sample EGW)?
A: 2.5%

Q: And the “F 2 (fractional contribution of middle-affinity phase)” value (HLM sample EGW)?
A: 97.5%

Q: What about the “F 3 (fractional contribution of low-affinity phase)” value (HLM sample EGW) of the same compound?
A: 0.0%

Q: And the “F 1 (fractional contribution of high-affinity phase)” value (HLM sample WGP)?
A: 0.0%

Q: What about the “F 2 (fractional contribution of middle-affinity phase)” value (HLM sample WGP) of the same compound?
A: 34.4%

Q: What about the “F 3 (fractional contribution of low-affinity phase)” value (HLM sample WGP) of the same compound?
A: 65.6%

Q: And the “F 1 (fractional contribution of high-affinity phase)” value (HLM sample X096)?
A: 9.8%

Q: And the “F 2 (fractional contribution of middle-affinity phase)” value (HLM sample X096)?
A: 0.0%

Q: What about the “F 3 (fractional contribution of low-affinity phase)” value (HLM sample X096) of the same compound?
A: 90.2%

Q: What about the “F 1 (fractional contribution of high-affinity phase)” value (HLM sample X263) of the same compound?
A: 21.7%

Q: What about the “F 2 (fractional contribution of middle-affinity phase)” value (HLM sample X263) of the same compound?
A: 21.5%

Q: And the “F 3 (fractional contribution of low-affinity phase)” value (HLM sample X263)?
A: 56.8%

Q: What about the “fraction of the high-affinity phase, average” value [1] of the same compound?
A: 5.5%

Q: And the “fraction of the lowest affinity component, average” value [1]?
A: 45.3%

Q: And the “fraction of the lowest affinity component, range” value [1]?
A: 0–90%

Q: What about the “fraction of the middle-affinity phase, average” value [1] of the same compound?
A: 49.2%

Q: What about the “fraction of the middle-affinity phase, range” value [1] of the same compound?
A: 0–100%

Q: And the Km (read-out: KM of high-affinity Michaelis–Menten component)?
A: 21 µM

Q: And the Km (read-out: KM of low-affinity Michaelis–Menten component)?
A: 730 µM

Q: What about the Km (read-out: KM of middle-affinity Michaelis–Menten component) of the same compound?
A: 213 µM
